Results published in paper PMC5218480 (PLoS ONE, 2017).

System: MV-4-11 cells
Experiment: Gene expression microarray analysis (Affymetrix PrimeView) and GSEA
Type: cell-based, human
Design: RFU PODN (11730768_x_at) / Fold change /veh PODN (11730768_x_at) / RFU LINC00158 (11744669_a_at) / Fold change /veh LINC00158 (11744669_a_at) / RFU DUSP10 (11751237_a_at) / Fold change /veh DUSP10 (11751237_a_at) / RFU ID3 (11757404_x_at) / Fold change /veh ID3 (11757404_x_at) / RFU PLEKHG5 (11737974_s_at) / Fold change /veh PLEKHG5 (11737974_s_at) / RFU LRRC4B (11730491_at) / Fold change /veh LRRC4B (11730491_at) / RFU GIMAP4 (11747438_a_at) / Fold change /veh GIMAP4 (11747438_a_at) / RFU KRT8 (11758183_x_at) / Fold change /veh KRT8 (11758183_x_at) / RFU CNN1 (11734310_a_at) / Fold change /veh CNN1 (11734310_a_at) / RFU VPS37D (11726825_at) / Fold change /veh VPS37D (11726825_at) / RFU C10orf10 (11716522_x_at) / Fold change /veh C10orf10 (11716522_x_at) / RFU KIR2DL2 /// KIR2DL4 /// KIR2DL5A /// KIR2DL5B /// KIR2DS1 /// KIR2DS2 /// KIR2DS3 /// KIR2DS4 /// KIR3DL3 /// KIR3DL3 /// KIR3DS1 (11738374_at) / Fold change /veh KIR2DL2 /// KIR2DL4 /// KIR2DL5A /// KIR2DL5B /// KIR2DS1 /// KIR2DS2 /// KIR2DS3 /// KIR2DS4 /// KIR3DL3 /// KIR3DL3 /// KIR3DS1 (11738374_at) / RFU C1QL1 (11718748_at) / Fold change /veh C1QL1 (11718748_at) / RFU TMPRSS4 (11747572_a_at) / Fold change /veh TMPRSS4 (11747572_a_at) / RFU HAMP (11756126_x_at) / Fold change /veh HAMP (11756126_x_at) / RFU RNFT2 (11725882_a_at) / Fold change /veh RNFT2 (11725882_a_at) / RFU NR4A2 (11747474_a_at) / Fold change /veh NR4A2 (11747474_a_at) / RFU ABCC12 (11746883_a_at) / Fold change /veh ABCC12 (11746883_a_at) / RFU TMEM136 (11760407_x_at) / Fold change /veh TMEM136 (11760407_x_at) / RFU CLDN22 /// WWC2 (11732394_at) / Fold change /veh CLDN22 /// WWC2 (11732394_at) / RFU HLA-DPB1 (11760878_x_at) / Fold change /veh HLA-DPB1 (11760878_x_at) / RFU SPINT1 (11716480_a_at) / Fold change /veh SPINT1 (11716480_a_at) / RFU GAP43 (11754022_s_at) / Fold change /veh GAP43 (11754022_s_at) / RFU A4GNT (11735810_at) / Fold change /veh A4GNT (11735810_at) / RFU PRB3 (11715151_x_at) / Fold change /veh PRB3 (11715151_x_at) / RFU TUBB4B (11761932_at) / Fold change /veh TUBB4B (11761932_at) / RFU CAPN14 (11732068_a_at) / Fold change /veh CAPN14 (11732068_a_at) / RFU TMCC2 (11721928_a_at) / Fold change /veh TMCC2 (11721928_a_at) / RFU IRGQ (11745062_a_at) / Fold change /veh IRGQ (11745062_a_at) / RFU FAM174B (11720279_a_at) / Fold change /veh FAM174B (11720279_a_at) / RFU TMPRSS4 (11748680_a_at) / Fold change /veh TMPRSS4 (11748680_a_at) / RFU FAM212B (11763350_a_at) / Fold change /veh FAM212B (11763350_a_at) / RFU PLEKHG5 (11743358_a_at) / Fold change /veh PLEKHG5 (11743358_a_at) / RFU ZSCAN30 (11745921_a_at) / Fold change /veh ZSCAN30 (11745921_a_at) / RFU CMKLR1 (11741424_a_at) / Fold change /veh CMKLR1 (11741424_a_at) / RFU LOC101060620 /// MAPK8IP1 (11723275_at) / Fold change /veh LOC101060620 /// MAPK8IP1 (11723275_at) / RFU SPTSSB (11747773_x_at) / Fold change /veh SPTSSB (11747773_x_at) / RFU PRSS12 (11739890_at) / Fold change /veh PRSS12 (11739890_at) / RFU BIN1 (11741810_x_at) / Fold change /veh BIN1 (11741810_x_at) / RFU WNT11 (11732464_a_at) / Fold change /veh WNT11 (11732464_a_at) / RFU C10orf10 (11716521_a_at) / Fold change /veh C10orf10 (11716521_a_at) / RFU C5orf56 (11738089_at) / Fold change /veh C5orf56 (11738089_at) / RFU CYB561 (11721691_x_at) / Fold change /veh CYB561 (11721691_x_at) / RFU ANKRD19P (11752326_a_at) / Fold change /veh ANKRD19P (11752326_a_at) / RFU OR2T12 /// OR2T33 /// OR2T8 (11738714_s_at) / Fold change /veh OR2T12 /// OR2T33 /// OR2T8 (11738714_s_at) / RFU VCAN (11748164_a_at) / Fold change /veh VCAN (11748164_a_at) / RFU JSRP1 (11732532_at) / Fold change /veh JSRP1 (11732532_at) / RFU KRTAP10-11 (11738290_x_at) / Fold change /veh KRTAP10-11 (11738290_x_at) / RFU MYO3A (11730013_a_at) / Fold change /veh MYO3A (11730013_a_at) / RFU EBF3 (11725865_a_at) / Fold change /veh EBF3 (11725865_a_at) / RFU CAMK2N1 (11719241_x_at) / Fold change /veh CAMK2N1 (11719241_x_at) / RFU C5orf56 (11738088_a_at) / Fold change /veh C5orf56 (11738088_a_at) / RFU OLFML3 (11715873_a_at) / Fold change /veh OLFML3 (11715873_a_at) / RFU LOC100653217 /// NTM (11731650_a_at) / Fold change /veh LOC100653217 /// NTM (11731650_a_at) / RFU MAPK11 (11762145_a_at) / Fold change /veh MAPK11 (11762145_a_at) / RFU FIZ1 (11724087_x_at) / Fold change /veh FIZ1 (11724087_x_at) / RFU OASL (11726364_x_at) / Fold change /veh OASL (11726364_x_at) / RFU SOX15 (11748057_x_at) / Fold change /veh SOX15 (11748057_x_at) / RFU CD79A (11719716_a_at) / Fold change /veh CD79A (11719716_a_at) / RFU HIST1H1D (11736915_at) / Fold change /veh HIST1H1D (11736915_at) / RFU CASKIN2 (11723855_a_at) / Fold change /veh CASKIN2 (11723855_a_at) / RFU LOC730098 (11760151_x_at) / Fold change /veh LOC730098 (11760151_x_at) / RFU OR4N2 (11742367_at) / Fold change /veh OR4N2 (11742367_at) / RFU PRRT2 (11749266_a_at) / Fold change /veh PRRT2 (11749266_a_at) / RFU SNX32 (11753110_a_at) / Fold change /veh SNX32 (11753110_a_at) / RFU CDHR5 (11726645_a_at) / Fold change /veh CDHR5 (11726645_a_at) / RFU RCAN1 (11760418_a_at) / Fold change /veh RCAN1 (11760418_a_at) / RFU FAM167A (11723789_a_at) / Fold change /veh FAM167A (11723789_a_at) / RFU FAM26E (11764081_at) / Fold change /veh FAM26E (11764081_at) / RFU ISYNA1 (11749810_s_at) / Fold change /veh ISYNA1 (11749810_s_at) / RFU ACY1 (11761880_at) / Fold change /veh ACY1 (11761880_at) / RFU 11764098_at / Fold change /veh 11764098_at / RFU SAMD14 (11745864_x_at) / Fold change /veh SAMD14 (11745864_x_at) / RFU NPB (11741838_a_at) / Fold change /veh NPB (11741838_a_at) / RFU TMPRSS6 (11731388_a_at) / Fold change /veh TMPRSS6 (11731388_a_at) / RFU KRTAP10-2 (11738614_at) / Fold change /veh KRTAP10-2 (11738614_at) / RFU ARHGAP8 /// PRR5-ARHGAP8 (11727945_x_at) / Fold change /veh ARHGAP8 /// PRR5-ARHGAP8 (11727945_x_at) / RFU KRTAP5-7 /// NADSYN1 (11734609_at) / Fold change /veh KRTAP5-7 /// NADSYN1 (11734609_at) / RFU RASL12 (11751679_a_at) / Fold change /veh RASL12 (11751679_a_at) / RFU CDKN2B (11736163_a_at) / Fold change /veh CDKN2B (11736163_a_at) / RFU PRF1 (11729649_at) / Fold change /veh PRF1 (11729649_at) / RFU, ZNF638 /// ZNF638-IT1 / Fold change vs veh, ZNF638 /// ZNF638-IT1 / RFU, PANK3 / Fold change vs veh, PANK3 / RFU, SH3YL1 / Fold change vs veh, SH3YL1 / RFU, ZEB2 / Fold change vs veh, ZEB2 / RFU, NRIP1 / Fold change vs veh, NRIP1 / RFU, PTTG1IP / Fold change vs veh, PTTG1IP / RFU, CAPN2 / Fold change vs veh, CAPN2 / RFU, MED14 / Fold change vs veh, MED14 / RFU, SNORA58 / Fold change vs veh, SNORA58 / RFU, C1orf63 / Fold change vs veh, C1orf63 / RFU, LRRFIP1 / Fold change vs veh, LRRFIP1 / RFU, NDUFAF7 / Fold change vs veh, NDUFAF7 / RFU, SLC12A2 / Fold change vs veh, SLC12A2 / RFU, IBTK / Fold change vs veh, IBTK / RFU, ESF1 / Fold change vs veh, ESF1 / Fold change vs veh, TMEM50B / RFU, TAOK1 / Fold change vs veh, TAOK1 / RFU, ACBD3 / Fold change vs veh, ACBD3 / RFU, TMA16 / Fold change vs veh, TMA16 / RFU, RWDD3 / Fold change vs veh, RWDD3 / RFU, BCAT1 / Fold change vs veh, BCAT1 / RFU, EDEM3 / Fold change vs veh, EDEM3 / RFU, TMEM33 / Fold change vs veh, TMEM33 / RFU, WDR75 / Fold change vs veh, WDR75 / RFU, AHCTF1 / Fold change vs veh, AHCTF1 / RFU, TFRC / Fold change vs veh, TFRC / RFU, ZDHHC17 / Fold change vs veh, ZDHHC17 / RFU, NOM1 / Fold change vs veh, NOM1 / RFU, ARL8B / Fold change vs veh, ARL8B / RFU, ZBTB11 / Fold change vs veh, ZBTB11 / RFU, TAMM41 / Fold change vs veh, TAMM41 / RFU, KIAA1704 /// LOC100996395 / Fold change vs veh, KIAA1704 /// LOC100996395 / RFU, ING1 / Fold change vs veh, ING1 / RFU, TRMT61B / Fold change vs veh, TRMT61B / RFU, FUBP3 / Fold change vs veh, FUBP3 / RFU, TP53 / Fold change vs veh, TP53 / RFU, TNKS2 / Fold change vs veh, TNKS2 / RFU, ZFP14 / Fold change vs veh, ZFP14 / RFU, ACTR2 / Fold change vs veh, ACTR2 / RFU, PPP3R1 / Fold change vs veh, PPP3R1 / RFU, PIK3R1 / Fold change vs veh, PIK3R1 / RFU, HNRNPA1 / Fold change vs veh, HNRNPA1 / RFU, RNF170 / Fold change vs veh, RNF170 / RFU, ZNF28 / Fold change vs veh, ZNF28 / RFU, RNGTT / Fold change vs veh, RNGTT / RFU, OGT / Fold change vs veh, OGT / RFU, BRD1 / Fold change vs veh, BRD1 / RFU, MARS / Fold change vs veh, MARS / RFU, ZNF655 / Fold change vs veh, ZNF655 / RFU, FAHD1 / Fold change vs veh, FAHD1 / RFU, BDP1 / Fold change vs veh, BDP1 / RFU, LRRCC1 / Fold change vs veh, LRRCC1 / RFU, ARID1A / Fold change vs veh, ARID1A / RFU, ZNF146 / Fold change vs veh, ZNF146 / RFU, ZNF330 / Fold change vs veh, ZNF330 / RFU, GPN3 / Fold change vs veh, GPN3 / RFU, C9orf123 / Fold change vs veh, C9orf123 / RFU, N4BP2L2 / Fold change vs veh, N4BP2L2 / RFU, ARFIP1 / Fold change vs veh, ARFIP1 / RFU, FAM179B / Fold change vs veh, FAM179B / RFU, BCL10 / Fold change vs veh, BCL10 / RFU, UHRF1BP1L / Fold change vs veh, UHRF1BP1L / RFU, BET1 / Fold change vs veh, BET1 / RFU, CNOT2 / Fold change vs veh, CNOT2 / RFU, ZNF268 / Fold change vs veh, ZNF268 / Fold change vs veh, ZNF507 / RFU, DGCR2 / Fold change vs veh, DGCR2 / RFU, WDSUB1 / Fold change vs veh, WDSUB1 / Fold change vs veh, HSP90B1 /// MIR3652 / RFU, ADSS / Fold change vs veh, ADSS / RFU, GK / Fold change vs veh, GK / RFU, ZNF148 / Fold change vs veh, ZNF148 / RFU, TAF9 / Fold change vs veh, TAF9 / RFU, SLC1A5 / Fold change vs veh, SLC1A5 / RFU, SLMO2 / Fold change vs veh, SLMO2 / RFU, ABCC4 / Fold change vs veh, ABCC4 / RFU, LOC101060439 /// RAP1B / Fold change vs veh, LOC101060439 /// RAP1B / RFU, RFX7 / Fold change vs veh, RFX7 / RFU, GTPBP10 / Fold change vs veh, GTPBP10 / RFU, CNEP1R1 / Fold change vs veh, CNEP1R1 / RFU, BIVM-ERCC5 /// ERCC5 / Fold change vs veh, BIVM-ERCC5 /// ERCC5 / RFU, ILF3 / Fold change vs veh, ILF3 / RFU 11762660_at / Fold change /veh 11762660_at / RFU VCAN (11757783_s_at) / Fold change /veh VCAN (11757783_s_at) / RFU DDX43 (11728927_at) / Fold change /veh DDX43 (11728927_at) / RFU KRT8 (11758188_x_at) / Fold change /veh KRT8 (11758188_x_at) / RFU NKD1 (11759106_at) / Fold change /veh NKD1 (11759106_at) / RFU SRD5A1 (11742802_a_at) / Fold change /veh SRD5A1 (11742802_a_at) / RFU TPSAB1 /// TPSB2 (11721975_s_at) / Fold change /veh TPSAB1 /// TPSB2 (11721975_s_at) / RFU GSTM3 (11746129_a_at) / Fold change /veh GSTM3 (11746129_a_at) / RFU IL23R (11737362_x_at) / Fold change /veh IL23R (11737362_x_at) / RFU TMEM51 (11727254_a_at) / Fold change /veh TMEM51 (11727254_a_at) / RFU PIWIL2 (11732686_x_at) / Fold change /veh PIWIL2 (11732686_x_at) / RFU ORM1 (11744905_x_at) / Fold change /veh ORM1 (11744905_x_at) / RFU CCDC152 (11743942_at) / Fold change /veh CCDC152 (11743942_at) / RFU ECM1 (11717891_a_at) / Fold change /veh ECM1 (11717891_a_at) / RFU IL23R (11748794_a_at) / Fold change /veh IL23R (11748794_a_at) / RFU TNFAIP8L3 (11732012_x_at) / Fold change /veh TNFAIP8L3 (11732012_x_at) / RFU MBOAT4 (11741988_at) / Fold change /veh MBOAT4 (11741988_at) / RFU 11764193_at / Fold change /veh 11764193_at / RFU TMEM53 (11763286_at) / Fold change /veh TMEM53 (11763286_at) / RFU MAGEB2 (11727129_at) / Fold change /veh MAGEB2 (11727129_at) / RFU TMEM200A (11744735_a_at) / Fold change /veh TMEM200A (11744735_a_at) / RFU CCDC152 (11751479_a_at) / Fold change /veh CCDC152 (11751479_a_at) / RFU FAM211A (11726209_a_at) / Fold change /veh FAM211A (11726209_a_at) / RFU RGS16 (11746705_a_at) / Fold change /veh RGS16 (11746705_a_at) / RFU VCAN (11755009_s_at) / Fold change /veh VCAN (11755009_s_at) / RFU RHOB (11743442_s_at) / Fold change /veh RHOB (11743442_s_at) / RFU RGS16 (11720943_a_at) / Fold change /veh RGS16 (11720943_a_at) / RFU RGS16 (11720944_at) / Fold change /veh RGS16 (11720944_at) / RFU, VPS4B / Fold change vs veh, VPS4B / RFU, CREB1 / Fold change vs veh, CREB1 / RFU, DNAJC13 / Fold change vs veh, DNAJC13 / RFU, GNAQ / Fold change vs veh, GNAQ / RFU, CDK5R1 / Fold change vs veh, CDK5R1 / RFU, ZRANB3 / Fold change vs veh, ZRANB3 / RFU, CUL4A / Fold change vs veh, CUL4A / RFU, CCNY / Fold change vs veh, CCNY / RFU, UFL1 / Fold change vs veh, UFL1 / RFU, COG3 / Fold change vs veh, COG3 / RFU, DIAPH2 / Fold change vs veh, DIAPH2 / RFU, SKA2 / Fold change vs veh, SKA2 / RFU, AFF3 / Fold change vs veh, AFF3 / RFU, LMF1 / Fold change vs veh, LMF1 / RFU, IPO11 / Fold change vs veh, IPO11 / RFU, DFFB / Fold change vs veh, DFFB / RFU, FOXP1 / Fold change vs veh, FOXP1 / RFU, CARD8 / Fold change vs veh, CARD8 / RFU, STRN3 / Fold change vs veh, STRN3 / RFU, ADK / Fold change vs veh, ADK / RFU, RASSF2 / Fold change vs veh, RASSF2 / RFU, WIPF1 / Fold change vs veh, WIPF1 / RFU, LARP1B / Fold change vs veh, LARP1B / RFU, RASA1 / Fold change vs veh, RASA1 / RFU, RB1 / Fold change vs veh, RB1 / RFU, PPFIA1 / Fold change vs veh, PPFIA1 / RFU, MAT2A / Fold change vs veh, MAT2A / RFU, CCT5 / Fold change vs veh, CCT5 / RFU, WDR92 / Fold change vs veh, WDR92 / RFU, CUX1 / Fold change vs veh, CUX1 / RFU, TTC7A / Fold change vs veh, TTC7A / RFU, TMEM135 / Fold change vs veh, TMEM135 / RFU, DEPTOR / Fold change vs veh, DEPTOR / RFU, CPM / Fold change vs veh, CPM / RFU, DNAJB6 / Fold change vs veh, DNAJB6 / RFU, CACNA2D3 / Fold change vs veh, CACNA2D3 / RFU, DTX4 / Fold change vs veh, DTX4 / RFU, TFCP2 / Fold change vs veh, TFCP2 / RFU, GMCL1 /// GMCL1P1 / Fold change vs veh, GMCL1 /// GMCL1P1 / RFU, AEBP2 / Fold change vs veh, AEBP2 / RFU, SNHG1 /// SNORD22 /// SNORD25 /// SNORD26 /// SNORD27 /// SNORD28 /// SNORD29 /// SNORD31 / Fold change vs veh, SNHG1 /// SNORD22 /// SNORD25 /// SNORD26 /// SNORD27 /// SNORD28 /// SNORD29 /// SNORD31 / Fold change (Aza/veh), C12orf56 (ProbeSet 11735607_a_at) / Fold change (ACY-1035/veh), C12orf56 (ProbeSet 11735607_a_at) / Fold change (Aza/veh), FGFR1OP (ProbeSet 11751329_s_at) / Fold change (ACY-1035/veh), FGFR1OP (ProbeSet 11751329_s_at) / Fold change (Aza/veh), VPS36 (ProbeSet 11739960_a_at) / Fold change (ACY-1035/veh), VPS36 (ProbeSet 11739960_a_at) / RFU SYPL1 (11715823_x_at) / Fold change /veh SYPL1 (11715823_x_at) / RFU IGFBP7 (11715501_s_at) / Fold change /veh IGFBP7 (11715501_s_at) / RFU REEP3 (11722064_at) / Fold change /veh REEP3 (11722064_at) / RFU IGLL1 (11728026_x_at) / Fold change /veh IGLL1 (11728026_x_at): dose or concentration left out as unconfirmed
Conditions: ProbeSet 11743510_at; LIST D

Nc1ccc(-c2cccs2)cc1NC(=O)c1ccc2c(c1)cc(C1CC1)n2CCN1CCOCC1 [ACY-1035]
Fold change vs veh, UFL1: 0.85
